# In PubChem BioAssay (NCI):
# Where “and” joins values, the source holds several entries; their conditions need not be identical. Equal values may be shown once.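 Interpolation was linear, between the two tested concentrations surrounding the appropriate level; five concentrations were tested over 48 hours in 96-well plates. Here, GI50 denotes the concentration required for 50% inhibition of growth. TGI marks complete inhibition of growth.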
# How the values were obtained:
# Assay in all cases: NCI tumour cell line growth inhibition, 48 h
# A549 NSCLC = tested on: A549 NSCLC
# HCT-15 colon = tested on: HCT-15 colon
# HOP-92 NSCLC = tested on: HOP-92 NSCLC
# NCI-H460 lung = tested on: NCI-H460 lung
# RPMI-8226 leukemia = tested on: RPMI-8226 leukemia
# SF-268 CNS = tested on: SF-268 CNS
# SF-295 CNS = tested on: SF-295 CNS
# SNB-19 CNS = tested on: SNB-19 CNS
# T-47D breast = tested on: T-47D breast
# U251 CNS = tested on: U251 CNS
SMILES,GI50 (A549 NSCLC) [µM],TGI (A549 NSCLC),GI50 (HCT-15 colon) [µM],TGI (HCT-15 colon),GI50 (HOP-92 NSCLC) [µM],TGI (HOP-92 NSCLC) [µM],GI50 (NCI-H460 lung) [µM],TGI (NCI-H460 lung),GI50 (RPMI-8226 leukemia) [µM],TGI (RPMI-8226 leukemia) [µM],GI50 (SF-268 CNS) [µM],TGI (SF-268 CNS),GI50 (SF-295 CNS) [µM],TGI (SF-295 CNS) [µM],GI50 (SNB-19 CNS) [µM],TGI (SNB-19 CNS),GI50 (T-47D breast) [µM],TGI (T-47D breast) [µM],GI50 (U251 CNS) [µM],TGI (U251 CNS) [µM]
COc1ccc(/C=C2/SC(Nc3nc(-c4nc(NC5=NC(=O)/C(=C\c6ccc(OC)cc6)S5)sc4C)c(C)s3)=NC2=O)cc1,1.14,17.2 µM,0.397,7.82 µM,6.15,19.1,1.4,> 31.7 µM,0.572,3.21,2.79,> 33.8 µM,0.255,4.97,5.81,> 50 µM,7.52,> 50,1.3,7.32
CCCCCCCCCCCCOC1C(CNC(=O)C2OC3OC(C)(C)OC3C2NC(=O)CN2CCN(c3ccc(OC)cc3)CC2)OC2OC(C)(C)OC21 (configuration not stated),3.18,18.2 µM,3.53,11.3 µM,3.17,12.2,–,–,2.13,4.73,3.12,11.5 µM,5.12,18.4,5.3,17 µM,4.33,23.4,4.74,15.8
O=[N+]([O-])c1cc([N+](=O)[O-])c(Nn2c3ccccc3c3ccccc32)c([N+](=O)[O-])c1,0.334,14.3 µM and > 100 µM,0.377,11.8 µM and 3.97 µM,–,2.81,0.342,13 µM and 1.93 µM,–,0.56,0.359,39 µM and > 100 µM,–,0.79,0.376,54 µM and > 100 µM,0.278,–,0.358,> 100
CCN(Cc1cccc(Cl)c1)c1ccc(CO)c(Cl)c1,2.47,17 µM,9.93,25.9 µM,1.29,10.7,0.35,12.3 µM,4.35,28.1,13.8,28 µM,1.12,13.8,13.8,28.6 µM,0.205,1.14,1.09,14.6
Cn1c2c(c3ccccc31)CCN1C(=O)CCC21 (configuration not stated),–,–,–,> 10 µM,–,> 10,–,> 10 µM,–,> 10,–,> 10 µM,–,> 10,–,> 10 µM,–,> 10,–,> 10
C=CCC(N[C@@H](CO)c1ccccc1)c1cn(C(=O)OCC)c2ccccc12 (some centres not stated),34.7,> 100 µM,18.9,40.8 µM,16.5,39.8,26.2,70.1 µM,17.9,52.3,23,54.5 µM,20.8,53.9,–,–,25.8,> 100,17.9,32.4
CCOc1ccn(-c2ccc(F)cc2)c(=O)c1C(=O)Nc1ccc(Oc2ccnc(N)c2Cl)c(F)c1,9.12,86.2 µM,10.6,> 79.6 µM,0.801,12.3,4.74,> 87 µM,14.6,> 88.8,10.9,> 100 µM,0.787,48.3,27.8,> 100 µM,11.8,98,26,> 100
Cc1cc(Nc2cc(N3CCN(C)CC3)nc(/C=C/c3ccccc3)n2)n[nH]1,0.501,> 10 µM,0.326,> 10 µM,0.476,1.95,0.29,> 5.52 µM,1.69,> 3.14,0.845,> 4.08 µM,0.707,> 4.64,1.49,> 10 µM,1.77,> 9.46,0.883,> 6.76
CO[C@H]1CC(O[C@@H]2/C(C)=C/C[C@@H]3C[C@@H](C[C@]4(CC[C@H](C)[C@@H](C5CCCCC5)O4)O3)OC(=O)[C@@H]3C=C(C)/C(=N/O)[C@H]4OC/C(=C\C=C\[C@@H]2C)[C@]43O)O[C@@H](C)C1O (some centres not stated),0.935,2.66 µM,0.873,1.95 µM,0.648,1.57,0.793,1.51 µM,0.944,2.72,0.982,2.45 µM,0.888,1.87,1.66,9.01 µM,1.1,3.09,0.759,1.47
Cc1cc2c(-c3nc4ccccn4c3N)c(O)c(O)cc2c(O)c1-c1c(C)cc2c(-c3nc4ccccn4c3N)c(O)c(O)cc2c1O,0.688,> 25 µM,0.58,> 25 µM,0.65,2.29,0.103,3.11 µM,0.661,> 25,0.653,> 25 µM,–,–,0.661,> 25 µM,0.502,> 25,0.273,> 25
CN1CCN(C(=O)COc2ccc(/C=C3\CC4C5CC=C6CC(Cl)CCC6(C)C5CCC4(C)C3=O)cc2)CC1 (configuration not stated),> 100,> 100 µM,–,–,10.4,> 100,–,–,6.9,> 100,> 100,> 100 µM,> 100,> 100,> 100,> 100 µM,> 100,> 100,3.33,> 100
O=C1c2ccccc2-c2c1c1ccccc1c(=O)n2CCCNCCn1c2c(c3ccccc3c1=O)C(=O)c1ccccc1-2,13.5,26.3 µM,2.74,13 µM,14.1,28.1,3.02,17.6 µM,–,–,7.6,26.5 µM,7.77,27.5,2.48,11.6 µM,17.8,34.6,1.61,3.29
CCOP(=O)(OCC)C(C(=O)OC)C(=O)C(=O)Nc1cccc(O)c1 (configuration not stated),–,> 100 µM,–,> 100 µM,–,> 100,–,> 100 µM,–,–,–,> 100 µM,–,> 100,–,> 100 µM,–,> 100,–,> 100
